The test system of assay [1] is HEK-293 cells transfected with empty pcDNA3.1neo vector. The experiment in a line: Fluo-3 intracellular Ca2+ assay, control HEK-293 cells with empty pcDNA3.1neo vector. It is filed as cell-based, human. The note with it: HEK-293 empty pcDNA3.1neo vector; 40 nM WS 12 (Figure S1a). The procedure: Following a brief wash with PBS, cells were detached from each T75 flask by soaking with 2 ml Hepes-buffered saline EDTA (10 mM Hepes pH7.4, 155 mM NaCl, 1.7 mM EDTA) for several minutes and were harvested by addition of 10 ml PBS with gentle agitation and transfer to a 25 ml universal. A sample was taken to calculate cell yield using a hemocytometer and the cells were pelleted by centrifugation at 1500 rpm for 4 min. The pellet was resuspended in isotonic buffer (145 mM NaCl, 5 mM KCl, 1 mM MgCl2, 1 mM CaCl2, 10 mM Hepes pH7.4, 10 mM glucose, a variable content of probenecid (0, 0.13, 0.26, 0.52, 1.0, 2.0 or 2.5 mM) or 0.18 mM sulfinpyrazone, with optional 10 mg/ml BSA (all from Sigma-Aldrich) at a density of 5×10^6/ml and mixed with 2.5 or 5.0 μl Fluo-3AM (Invitrogen) from a 2.5 μg/μl stock solution prepared in (DMSO, Sigma-Aldrich). Cells were incubated in a 25 ml universal in the dark at room temperature with gentle rotary mixing (50 rpm) for 30–45 min and then washed by addition of 18 ml PBS followed by centrifugation and resuspension in isotonic buffer without BSA at 5×10^6 cells/ml. […] Real-time fluorescence intensity measurements were collected and data were exported to Microsoft Excel for analysis. […]

The target of the next assay is T1, TRPA1 797R (Homo sapiens, UniProt O75762).
T1 construct: expressed in transfected cells
T1 sequence (O75762 whole entry): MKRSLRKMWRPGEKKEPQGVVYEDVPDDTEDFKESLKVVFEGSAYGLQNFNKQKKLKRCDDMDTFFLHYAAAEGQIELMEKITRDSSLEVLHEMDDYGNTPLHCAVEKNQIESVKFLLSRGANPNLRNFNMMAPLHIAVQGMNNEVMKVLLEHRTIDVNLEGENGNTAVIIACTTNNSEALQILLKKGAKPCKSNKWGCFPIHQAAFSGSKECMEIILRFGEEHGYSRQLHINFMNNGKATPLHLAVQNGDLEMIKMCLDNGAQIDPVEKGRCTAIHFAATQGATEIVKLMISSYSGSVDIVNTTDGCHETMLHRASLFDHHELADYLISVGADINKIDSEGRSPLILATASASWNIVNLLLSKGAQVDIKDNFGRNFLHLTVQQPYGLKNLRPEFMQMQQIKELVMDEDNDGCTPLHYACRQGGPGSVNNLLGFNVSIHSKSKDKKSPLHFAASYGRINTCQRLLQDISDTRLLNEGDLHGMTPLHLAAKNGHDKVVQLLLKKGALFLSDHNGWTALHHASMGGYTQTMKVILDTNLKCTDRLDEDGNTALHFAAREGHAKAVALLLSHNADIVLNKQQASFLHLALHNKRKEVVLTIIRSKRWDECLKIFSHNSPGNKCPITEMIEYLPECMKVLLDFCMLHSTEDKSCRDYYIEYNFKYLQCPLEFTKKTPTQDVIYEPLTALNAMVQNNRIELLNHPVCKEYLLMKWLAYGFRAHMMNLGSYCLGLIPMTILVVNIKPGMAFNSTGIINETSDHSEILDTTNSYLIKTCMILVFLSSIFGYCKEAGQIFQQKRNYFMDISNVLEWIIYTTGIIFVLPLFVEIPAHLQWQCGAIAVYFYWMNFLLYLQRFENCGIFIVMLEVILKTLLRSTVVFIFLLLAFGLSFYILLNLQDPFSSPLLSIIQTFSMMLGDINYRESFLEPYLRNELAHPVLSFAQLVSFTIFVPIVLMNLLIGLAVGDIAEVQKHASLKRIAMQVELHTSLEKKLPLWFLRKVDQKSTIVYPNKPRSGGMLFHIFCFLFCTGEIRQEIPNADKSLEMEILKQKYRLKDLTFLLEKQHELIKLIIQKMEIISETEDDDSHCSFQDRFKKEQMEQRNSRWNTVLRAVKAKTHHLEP
The experiment in a line: Fluo-3 intracellular Ca2+ assay, HEK-293 cells expressing TRPA1 797R (reference sequence). It is filed as cell-based.

The next assay deals with T2, human TRPM8 (Homo sapiens, UniProt Q7Z2W7).
T2 construct: expressed in transfected cells
T2 sequence (Q7Z2W7 whole entry): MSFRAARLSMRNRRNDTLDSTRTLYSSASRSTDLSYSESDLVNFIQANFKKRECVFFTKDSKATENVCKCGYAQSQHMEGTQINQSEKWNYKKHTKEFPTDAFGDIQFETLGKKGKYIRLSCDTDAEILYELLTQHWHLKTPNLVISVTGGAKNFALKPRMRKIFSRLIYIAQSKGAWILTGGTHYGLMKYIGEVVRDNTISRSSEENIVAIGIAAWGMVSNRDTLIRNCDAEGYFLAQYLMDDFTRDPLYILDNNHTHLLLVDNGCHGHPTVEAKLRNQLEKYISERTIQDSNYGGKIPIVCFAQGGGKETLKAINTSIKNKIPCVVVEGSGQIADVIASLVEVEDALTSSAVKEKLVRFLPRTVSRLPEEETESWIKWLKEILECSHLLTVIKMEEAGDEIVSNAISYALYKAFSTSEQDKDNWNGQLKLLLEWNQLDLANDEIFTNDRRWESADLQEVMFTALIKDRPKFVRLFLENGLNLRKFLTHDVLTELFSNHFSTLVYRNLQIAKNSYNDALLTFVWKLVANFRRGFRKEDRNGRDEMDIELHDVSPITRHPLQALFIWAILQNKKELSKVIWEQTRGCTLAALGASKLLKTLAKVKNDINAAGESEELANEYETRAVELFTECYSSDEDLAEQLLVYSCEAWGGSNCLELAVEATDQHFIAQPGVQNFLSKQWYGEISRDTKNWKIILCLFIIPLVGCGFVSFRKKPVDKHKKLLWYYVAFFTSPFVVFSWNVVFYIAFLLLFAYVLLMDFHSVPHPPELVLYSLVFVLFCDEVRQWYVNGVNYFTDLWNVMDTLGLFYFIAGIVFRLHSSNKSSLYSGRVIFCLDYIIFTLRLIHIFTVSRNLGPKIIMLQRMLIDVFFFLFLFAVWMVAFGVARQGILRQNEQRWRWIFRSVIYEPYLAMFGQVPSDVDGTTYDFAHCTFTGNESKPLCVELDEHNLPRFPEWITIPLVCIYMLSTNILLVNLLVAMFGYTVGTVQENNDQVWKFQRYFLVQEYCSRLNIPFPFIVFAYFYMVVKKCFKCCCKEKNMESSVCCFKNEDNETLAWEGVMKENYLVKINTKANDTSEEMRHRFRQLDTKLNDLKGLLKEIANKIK
In words: Fluo-3 intracellular Ca2+ assay, HEK-293 cells expressing normal human TRPM8. The class given is cell-based. The protocol: (§1) When cells reached approximately 80% confluence they were harvested for assays measuring Ca^2+ transients in response to TRP channel activation. […] A sample was taken to calculate cell yield using a hemocytometer and the cells were pelleted by centrifugation at 1500 rpm for 4 min.
(§2) Cell suspension for assay was added to 1.9 ml isotonic assay buffer (no BSA) in a 10×10×45 mm polystyrene cuvette (Sarstedt Ltd) containing a small magnetic flea for continuous stirring (~50 rpm), to bring the final volume to 2 ml, and placed within the photomultipler light box. […] Slit apertures were adjusted to enable maximum sensitivity while maintaining low noise. TRP channel agonist was administered by injection into the cuvette using a 1–20 μl pipette fitted with a narrow, extended-reach disposable tip. Antagonists were pre-added to cuvettes where appropriate. Real-time fluorescence intensity measurements were collected and data were exported to Microsoft Excel for analysis. Experimental treatments were performed in triplicate on three separate occasions to facilitate statistical analyses of reproducibility.
Data from the measurement of Ca^2+ transients (each treatment including a 2 μM A23187 Ca^2+ ionophore control) were used to generate fluorescence intensity traces in Microsoft Excel. RFU (relative fluorescence unit) values for baseline and agonist-induced peak Ca^2+ fluo-3-fluorescence were determined by the manual analysis of graphs. Agonist dose-dependent changes in peak RFU were expressed as ΔRFU relative to baseline and relative to maximum RFU elicited by A23187. […] This enabled estimation of excitatory concentration EC50 for agonists and inhibitory concentration IC50 values where pre-incubation with antagonist was employed. Comparisons between data generated in triplicate within individual experiments and between experiments performed on […] were analysed using Student's t test and one-way ANOVA with post-hoc analysis of group means using Tukey's multiple comparison test.

In the next assay the target is T3, TRPA1 804N (Homo sapiens, UniProt O75762, S804N).
T3 construct: expressed in transfected cells
T3 sequence (O75762 whole entry S804N): as the sequence (O75762 whole entry) above, with S804N counted along it
The experiment in a line: Fluo-3 intracellular Ca2+ assay, HEK-293 cells expressing TRPA1 804N SNP variant. It is filed as cell-based. To be noted: HEK-293 TRPA1 804N; mean ±standard deviation, n=4; read-out: EC50 cinnamaldehyde. An excerpt: (§3) Human TRPA1 cDNA in pcDNA3.1neo [41] was mutated to create SNP variants using quick change PCR with appropriate primer pairs: R797T forward 5′ […] TT and reverse 5′ […], S804N forward 5′ […] ATGTTC and reverse 5′ […]. Likewise, the experimental mutant S873E, in ICL-2 (intracellular loop-2), was created using PCR primers: forward 5′ […] […] and reverse 5′ […]. For C-terminal extension, TRPA1cDNA was modified by excision of the 3′ section of the coding region (BamHI–XbaI digestion) and replacement with a BamHI–XbaI digested PCR amplified section containing codons for ten histidine residues (His)10 prior to the translation stop codon using T4 DNA ligase (Promega). PCR primers were: sense 5′ TTTAC […] CATT 3′ and antisense 5′ […] […] TGCCTT 3′. […]
(§4) Aliquots of cell suspension (usually 100 μl) were used for measurement of intracellular Ca^2+ transients using a PTI (Photon Technology International) 814 photomultiplier detection system interfaced with a desktop computer (PTI Inc.). […] The cuvette was illuminated using light at a wavelength of 506 nm (slit width 8 nm) and monitored using fluorescence detection at 526 nm (slit width 8 nm) coupled to FeliX GX software (PTI Inc). […] Real-time fluorescence intensity measurements were collected and data were exported to Microsoft Excel for analysis. […]

For a further assay, the target named is T4, TRPA1-(His)10 (Homo sapiens, UniProt O75762).
T4 construct: expressed in transfected cells
T4 sequence (O75762 with tags, fused parts or gaps limits assumed): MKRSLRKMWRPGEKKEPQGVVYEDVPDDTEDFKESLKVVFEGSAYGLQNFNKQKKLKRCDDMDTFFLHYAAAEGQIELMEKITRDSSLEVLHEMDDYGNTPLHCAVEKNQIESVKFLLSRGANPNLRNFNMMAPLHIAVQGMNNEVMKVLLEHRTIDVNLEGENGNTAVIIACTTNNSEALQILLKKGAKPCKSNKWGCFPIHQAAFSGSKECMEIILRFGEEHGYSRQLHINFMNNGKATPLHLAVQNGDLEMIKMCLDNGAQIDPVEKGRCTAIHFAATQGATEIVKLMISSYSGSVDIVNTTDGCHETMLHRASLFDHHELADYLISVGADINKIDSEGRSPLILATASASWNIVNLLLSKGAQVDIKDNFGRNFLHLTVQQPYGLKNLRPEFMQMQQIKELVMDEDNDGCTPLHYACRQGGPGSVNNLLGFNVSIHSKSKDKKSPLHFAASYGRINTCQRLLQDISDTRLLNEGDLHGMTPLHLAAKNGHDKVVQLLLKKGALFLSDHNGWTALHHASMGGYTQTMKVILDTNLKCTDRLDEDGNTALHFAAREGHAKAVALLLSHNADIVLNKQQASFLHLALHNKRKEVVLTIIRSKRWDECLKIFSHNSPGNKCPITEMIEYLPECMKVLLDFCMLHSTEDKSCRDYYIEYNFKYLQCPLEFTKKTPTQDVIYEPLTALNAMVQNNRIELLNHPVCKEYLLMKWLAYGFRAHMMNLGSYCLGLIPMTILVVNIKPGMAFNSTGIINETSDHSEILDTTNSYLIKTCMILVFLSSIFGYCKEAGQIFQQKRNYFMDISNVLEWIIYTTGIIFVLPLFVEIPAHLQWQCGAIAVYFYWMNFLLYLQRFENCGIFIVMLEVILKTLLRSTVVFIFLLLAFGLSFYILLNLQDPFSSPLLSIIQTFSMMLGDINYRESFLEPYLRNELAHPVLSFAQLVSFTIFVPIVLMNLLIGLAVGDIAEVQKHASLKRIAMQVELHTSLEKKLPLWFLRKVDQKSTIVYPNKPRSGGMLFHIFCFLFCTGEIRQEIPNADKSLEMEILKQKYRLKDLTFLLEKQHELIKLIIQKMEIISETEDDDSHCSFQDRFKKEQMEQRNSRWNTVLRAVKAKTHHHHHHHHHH
The experiment in a line: Fluo-3 intracellular Ca2+ assay, HEK-293 cells expressing TRPA1-(His)10. It is filed as cell-based. The note with it: HEK-293 TRPA1-(His)10; mean ±standard deviation, n=4; read-out: EC50 cinnamaldehyde.
From the text: as §3, §4

Another assay has as its target T5, TRPA1 797T (Homo sapiens, UniProt O75762, R797T).
T5 construct: expressed in transfected cells
In words: Fluo-3 intracellular Ca2+ assay, HEK-293 cells expressing TRPA1 797T SNP variant. The class given is cell-based. The note with it: HEK-293 TRPA1 797T; mean ±standard deviation, n=4; read-out: EC50 cinnamaldehyde.
From the text: as §3, §4

The target of another assay is T6, TRPM8 SV 762,763 EL (Homo sapiens, UniProt Q7Z2W7, S762E/V763L).
T6 construct: expressed in transfected cells
T6 sequence (Q7Z2W7 whole entry S762E/V763L): as the sequence (Q7Z2W7 whole entry) above, with S762E, V763L counted along it
In words: Fluo-3 intracellular Ca2+ assay, HEK-293 cells expressing TRPM8 SV 762,763 EL mutant. It is filed as cell-based. To be noted: HEK293 TRPM8 SV / EL; mean±S.E.M., n=3; read-out: EC50 for WS 12 (peak intracellular Ca2+ fluorescence). An excerpt: (§5) Human TRPM8 cDNA was cloned by RT–PCR from human prostate cancer cell line LNCaP (from the American Type Culture Collection) by ligation into pcDNA3.1neo and its DNA sequence validated (L.R. Sadofsky, unpublished work). Normal TRPM8 cDNA was mutated using synthetic oligonucleotides (from Eurofins, MWG, Operon) to amplify full-length plasmid DNA with Pfu DNA polymerase (Thermo Scientific). Amplified DNA was used to transform competent Esherichia coli (Agilent) and individual plasmid clones were screened by diagnostic restriction enzyme digestion-agarose gel electrophoresis. […]
(§6) Cell suspension for assay was added to 1.9 ml isotonic assay buffer (no BSA) in a 10×10×45 mm polystyrene cuvette (Sarstedt Ltd) containing a small magnetic flea for continuous stirring (~50 rpm), to bring the final volume to 2 ml, and placed within the photomultipler light box. […] Real-time fluorescence intensity measurements were collected and data were exported to Microsoft Excel for analysis. […]
(§7) Data from the measurement of Ca^2+ transients (each treatment including a 2 μM A23187 Ca^2+ ionophore control) were used to generate fluorescence intensity traces in Microsoft Excel. RFU (relative fluorescence unit) values for baseline and agonist-induced peak Ca^2+ fluo-3-fluorescence were determined by the manual analysis of graphs. […]

The target in assay [2] is T7, TRPM8 FK 1045,1046 AG (Homo sapiens, UniProt Q7Z2W7, F1045A/K1046G).
T7 construct: expressed in transfected cells
T7 sequence (Q7Z2W7 whole entry F1045A/K1046G): as the sequence (Q7Z2W7 whole entry) above, with F1045A, K1046G counted along it
The experiment in a line: Fluo-3 intracellular Ca2+ assay, SH-SY5Y cells expressing TRPM8 FK 1045,1046 AG mutant. The class given is cell-based.
From the text: as §5, §6, §7

Assay [3] addresses T7, TRPM8 FK 1045,1046 AG. The experiment in a line: Fluo-3 intracellular Ca2+ assay, HEK-293 cells expressing TRPM8 FK 1045,1046 AG mutant. The class given is cell-based. The note with it: HEK293 TRPM8 FK / AG; mean±S.E.M., n=3; read-out: EC50 for WS 12 (peak intracellular Ca2+ fluorescence).
From the text: as §5, §6, §7

The next assay has as its target T8, SH-SY5Y TRPA1 R797T (Homo sapiens, UniProt O75762, R797T).
T8 construct: expressed in transfected cells
In words: Fluo-3 intracellular Ca2+ assay, TRPA1-transfected SH-SY5Y cells that lost response to agonist. The class given is cell-based. To be noted: pre-treatment followed by AITC. The protocol: as §1
as §2, with “Antagonists were pre-added to cuvettes where appropriate.” left out, “Experimental treatments were performed in triplicate on three separate occasions to facilitate statistical analyses of reproducibility.” left out
Data from the measurement of Ca^2+ transients (each treatment including a 2 μM A23187 Ca^2+ ionophore control) were used to generate fluorescence intensity traces in Microsoft Excel. RFU (relative fluorescence unit) values for baseline and agonist-induced peak Ca^2+ fluo-3-fluorescence were determined by the manual analysis of graphs. Agonist dose-dependent changes in peak RFU were expressed as ΔRFU relative to baseline and relative to maximum RFU elicited by A23187. […]

“Also recorded” adds a separate entry of the source.

These results are taken from publication PMC4122973 (Bioscience Reports, 2014).

T8 sequence (O75762 whole entry R797T): as the sequence (O75762 whole entry) above, with R797T counted along it
T5 sequence (O75762 whole entry R797T): as the sequence (O75762 whole entry) above, with R797T counted along it
Procedure for TRPA1 797R: When cells reached approximately 80% confluence they were harvested for assays measuring Ca^2+ transients in response to TRP channel activation. Following a brief wash with PBS, cells were detached from each T75 flask by soaking with 2 ml Hepes-buffered saline EDTA (10 mM Hepes pH7.4, 155 mM NaCl, 1.7 mM EDTA) for several minutes and were harvested by addition of 10 ml PBS with gentle agitation and transfer to a 25 ml universal. A sample was taken to calculate cell yield using a hemocytometer and the cells were pelleted by centrifugation at 1500 rpm for 4 min. […]

For the compound `CC1CCC(C(C)C)C(O)C1` (stereo not drawn) [menthol], the “Intracellular Ca2+ transients in empty-vector control cells” value in [1] was “did not exhibit intracellular Ca^2+ transients”.

With `CCCN(CCC)S(=O)(=O)c1ccc(C(=O)O)cc1` [probenecid], on TRPA1 797R (probenecid above 1 mM, up to 2.5 mM, 60 μM cinnamaldehyde), the “Effect of probenecid on TRPA1-induced intracellular Ca2+ response” value is “suppressed; also recorded: inhibited”. Moreover, the “Effect of low probenecid concentration on Ca2+ assay results” value on human TRPM8 (0.13 mM probenecid, relative to data derived using sulfinpyrazone, TRPM8 and TRPA1 assays) is on record as “did not affect”. For the same compound, the “Effect of probenecid on TRPM8-induced intracellular Ca2+ response” value at human TRPM8 (probenecid above 1 mM, up to 2.5 mM, 40 nM WS 12) is given as “inhibited; also recorded: suppressed the response to WS 12”.

On to `O=C/C=C/c1ccccc1` [cinnamaldehyde], for which the EC50 on TRPA1 804N turned out to be 11000 ± 3000 nM; at TRPA1 797R, 15000 ± 5000 nM; at TRPA1-(His)10, 8000 ± 2000 nM; on TRPA1 797T, 3000 ± 1000 nM.

For the compound `COc1ccc(NC(=O)[C@@H]2CC(C)CC[C@H]2C(C)C)cc1` (stereo partly drawn) [WS 12, (1R,2S)-N-(4-methoxyphenyl)-5-methyl-2-(1-methylethyl)cyclohexanecarbo-xamide], the EC50 on TRPM8 SV 762,763 EL is 178 ± 22 nM; on TRPM8 FK 1045,1046 AG [2] (mean±S.E.M., n=3, read-out: EC50 for WS 12 (peak intracellular Ca2+ fluorescence)), 187 ± 37 nM; at human TRPM8 (HEK293 TRPM8, mean±S.E.M., n=3, read-out: EC50 for WS 12 (peak intracellular Ca2+ fluorescence)), 128 ± 22 nM; at TRPM8 FK 1045,1046 AG [3], 194 ± 50 nM. Also, the “Intracellular Ca2+ transients in empty-vector control cells” value in [1] is recorded as “did not exhibit intracellular Ca^2+ transients”.

Turning to `Nc1ncnc2c1cnn2-c1ccccc1` [PP3, 4-amino-7-phenylpyrazol[3,4-d]pyrimidine], the “Recovery of responses to TRPA1 agonists after pre-treatment” value at SH-SY5Y TRPA1 R797T is “did not facilitate recovery”. Further, the “Effect of pre-treatment on responses to TRPM8 agonist” value on TRPM8 FK 1045,1046 AG [2] (150 nM WS 12) is recorded as “did not affect responses; also recorded: did not inhibit responses”.

By EC50 is commonly meant the concentration giving half of the maximal effect.
